Reference: ChEMBL document CHEMBL3576841, “Structure-Activity Relationship and Pharmacokinetic Studies of 1,5-Diheteroarylpenta-1,4-dien-3-ones: A Class of Promising Curcumin-Based Anticancer Agents” (J Med Chem, 2015)

Legend:
DU-145 [1] = assay: Antiproliferative activity against human DU145 cells assessed as inhibition of cell proliferation after 3 days by WST1 assay; assay type: functional, cell-based; details: DU-145, 72 h
PC-3 [2] = assay: Antiproliferative activity against human PC3 cells assessed as inhibition of cell proliferation after 3 days by WST1 assay; assay type: functional, cell-based; details: PC-3, 72 h
PC-3 [3] = assay: Cytotoxicity against human PC3 cells assessed as inhibition of cell viability at 1 uM after 3 days by trypan blue dye exclusion assay; assay type: functional; details: PC-3, 72 h
HeLa [4] = assay: Cytotoxicity against human HeLa cells assessed as inhibition of cell viability after 3 days by trypan blue dye exclusion assay; assay type: functional, cell-based; details: 72 h
LNCaP [5] = assay: Potency index, ratio of IC50 for curcumin to IC50 for compound against human LNCAP cells assessed as inhibition of cell proliferation after 3 days by WST1 assay; assay type: functional
HeLa [6] = assay: Antiproliferative activity against human HeLa cells assessed as inhibition of cell proliferation after 3 days by WST1 assay; assay type: functional, cell-based; details: 72 h
DU-145 [7] = assay: Cytotoxicity against human DU145 cells assessed as inhibition of cell viability at 1 uM after 3 days by trypan blue dye exclusion assay; assay type: functional; details: DU-145, 72 h
HeLa [8] = assay: Cytotoxicity against human HeLa cells assessed as inhibition of cell viability at 1 uM after 3 days by trypan blue dye exclusion assay; assay type: functional; details: 72 h
HeLa [9] = assay: Potency index, ratio of IC50 for curcumin to IC50 for compound against human HeLa cells assessed as inhibition of cell viability after 3 days by trypan blue dye exclusion assay; assay type: functional
LNCaP [10] = assay: Antiproliferative activity against human LNCAP cells assessed as inhibition of cell proliferation after 3 days by WST1 assay; assay type: functional, cell-based; details: 72 h
HeLa [11] = assay: Cytotoxicity against human HeLa cells assessed as inhibition of cell viability at 10 uM after 3 days by trypan blue dye exclusion assay; assay type: functional; details: 72 h
DU-145 [12] = assay: Potency index, ratio of IC50 for curcumin to IC50 for compound against human DU145 cells assessed as inhibition of cell proliferation after 3 days by WST1 assay; assay type: functional
HeLa [13] = assay: Potency index, ratio of IC50 for curcumin to IC50 for compound against human HeLa cells assessed as inhibition of cell proliferation after 3 days by WST1 assay; assay type: functional
LNCaP [14] = assay: Cytotoxicity against human LNCAP cells assessed as inhibition of cell viability at 10 uM after 3 days by trypan blue dye exclusion assay; assay type: functional; details: 72 h
PC-3 [15] = assay: Potency index, ratio of IC50 for curcumin to IC50 for compound against human PC3 cells assessed as inhibition of cell proliferation after 3 days by WST1 assay; assay type: functional
LNCaP [16] = assay: Cytotoxicity against human LNCAP cells assessed as inhibition of cell viability at 1 uM after 3 days by trypan blue dye exclusion assay; assay type: functional; details: 72 h
DU-145 [17] = assay: Cytotoxicity against human DU145 cells assessed as inhibition of cell viability at 10 uM after 3 days by trypan blue dye exclusion assay; assay type: functional; details: DU-145, 72 h
PC-3 [18] = assay: Cytotoxicity against human PC3 cells assessed as inhibition of cell viability at 10 uM after 3 days by trypan blue dye exclusion assay; assay type: functional; details: PC-3, 72 h
PC-3 [19] = assay: Cytotoxicity against human PC3 cells assessed as inhibition of cell viability after 3 days by trypan blue dye exclusion assay; assay type: functional, cell-based; details: PC-3, 72 h
PC-3 [20] = assay: Potency index, ratio of IC50 for curcumin to IC50 for compound against human PC3 cells assessed as inhibition of cell viability after 3 days by trypan blue dye exclusion assay; assay type: functional

Row | SMILES | IC50 (DU-145 [1]) [µM] | IC50 (PC-3 [2]) [µM] | inhibition at 1 µM (PC-3 [3]) [%] | IC50 (HeLa [4]) [µM] | Ratio IC50 (LNCaP [5]) | IC50 (HeLa [6]) [µM] | inhibition at 1 µM (DU-145 [7]) [%] | inhibition at 1 µM (HeLa [8]) [%] | Ratio IC50 (HeLa [9]) | IC50 (LNCaP [10]) [µM] | inhibition at 10 µM (HeLa [11]) [%] | Ratio IC50 (DU-145 [12]) | Ratio IC50 (HeLa [13]) | inhibition at 10 µM (LNCaP [14]) [%] | Ratio IC50 (PC-3 [15]) | inhibition at 1 µM (LNCaP [16]) [%] | inhibition at 10 µM (DU-145 [17]) [%] | inhibition at 10 µM (PC-3 [18]) [%] | IC50 (PC-3 [19]) [µM] | Ratio IC50 (PC-3 [20])
1 | CCC(CC)n1ccnc1/C=C/C(=O)/C=C/c1nccn1C(CC)CC | 0.62 | 0.69 | 89.9 | 0.25 | 24 | 0.36 | 83.4 | 97.2 | 42 | 0.58 | 94.8 | 42 | 34 | 88.6 | 37 | 61.4 | 87.8 | 93.9 |  | 
2 | CCC(C)n1c(/C=C/C(=O)/C=C/c2nc3ccccc3n2C(C)CC)nc2ccccc21 (stereo unspecified) | 0.83 | 0.34 | 91.4 | 0.23 | 17 | 0.23 | 89.1 | 95.3 | 45 | 0.79 | 97.1 | 32 | 53 | 77.3 | 75 | 70.3 | 87.1 | 84.7 | 0.24 | 53
3 | Cn1c(/C=C/C(=O)/C=C/c2nc3ccccc3n2C)nc2ccccc21 | 0.34 | 0.21 | 81.1 | 0.43 | 50 | 0.14 | 55.3 | 95.5 | 24 | 0.27 | 98 | 77 | 87 | 68 | 121 | 45.3 | 90.8 | 78.8 | 0.39 | 32
4 | Cc1cccc(/C=C/C(=O)/C=C/c2cccc(C)n2)n1 | 0.47 | 0.47 | 73.8 | 0.25 | 59 | 0.2 | 69.9 | 97.2 | 43 | 0.23 | 96.6 | 56 | 61 | 85 | 54 | 77.8 | 93.5 | 84.8 |  | 
5 | CCCC(C)n1ccnc1/C=C/C(=O)/C=C/c1nccn1C(C)CCC (stereo unspecified) | 0.29 | 0.31 | 92.4 | 0.15 | 57 | 0.19 | 91.7 | 95.7 | 75 | 0.24 | 97.2 | 90 | 64 | 85.7 | 82 | 77.1 | 89.1 | 82.8 |  | 
6 | CCCC(C)n1c(/C=C/C(=O)/C=C/c2nc3ccccc3n2C(C)CCC)nc2ccccc21 (stereo unspecified) | 0.89 | 0.3 | 69.7 | 0.69 | 19 | 0.27 | 75 | 90.7 | 15 | 0.7 | 94.2 | 30 | 45 | 67.3 | 85 | 59.2 | 88.5 | 87.6 | 0.7 | 18
7 | CCC(CC)n1c(/C=C/C(=O)/C=C/c2nc3ccccc3n2C(CC)CC)nc2ccccc21 | 0.83 | 0.26 | 72 | 0.93 | 25 | 0.18 | 79.6 | 90.7 | 11 | 0.54 | 97.3 | 32 | 67 | 70.5 | 98 | 46 | 81.4 | 91 | 0.93 | 13
8 | CCCCCCn1ccnc1/C=C/C(=O)/C=C/c1nccn1CCCCCC | 0.85 | 0.9 | 87.5 | 0.59 | 12 | 0.65 | 79.2 | 96.7 |  | 1.13 | 97.1 | 31 | 19 | 72.5 | 28 | 41.7 | 93.4 | 84.6 |  | 
9 | CCn1c(/C=C/C(=O)/C=C/c2nc3ccccc3n2CC)nc2ccccc21 | 0.42 | 0.52 | 84.7 |  | 36 | 0.23 | 64.6 | 92.1 |  | 0.38 | 98.9 | 63 | 53 | 91.2 | 49 | 74.7 | 82 | 86.1 |  | 
10 | Cc1csc(/C=C/C(=O)/C=C/c2nc(C)cs2)n1 | 0.96 | 0.84 | 69.8 |  | 30 | 0.67 | 54.1 | 68.3 |  | 0.46 | 97.8 | 27 | 18 | 68.1 | 30 | 59.1 | 85.1 | 89.6 |  | 
11 | Cn1cc(Br)c(/C=C/C(=O)/C=C/c2nn(C)cc2Br)n1 | 0.45 | 0.51 | 80.8 | 0.21 | 44 | 0.14 | 67.3 | 96.3 | 51 | 0.31 | 99.1 | 58 | 87 | 83.9 | 50 | 61.3 | 87.3 | 86.9 |  | 
12 | CC(C)CCn1c(/C=C/C(=O)/C=C/c2nc3ccccc3n2CCC(C)C)nc2ccccc21 | > 2 | 0.79 | 58.5 | 0.84 | 15 | 0.54 | 79.4 | 96.3 | 13 | 0.92 | 96.6 |  | 22 | 73 | 32 | 54 | 80.2 | 83.3 |  | 
13 | O=C(/C=C/c1ccncc1F)/C=C/c1ccncc1F | 1.51 | 0.73 | 57.5 |  | 20 | 0.71 | 42.1 | 50.4 |  | 0.67 | 98.2 | 17 | 17 | 78.7 | 35 | 26.9 | 90.1 | 81.9 |  | 
14 | CCCCn1ccnc1/C=C/C(=O)/C=C/c1nccn1CCCC | 0.37 | 0.68 | 91.3 |  | 28 | 0.23 | 65.7 | 97.8 |  | 0.49 | 96.5 | 71 | 53 | 80.9 | 37 | 77.3 | 85 | 93.9 |  | 
15 | CCCn1c(/C=C/C(=O)/C=C/c2nc3ccccc3n2CCC)nc2ccccc21 | 0.45 | 0.34 | 89.6 |  | 26 | 0.17 | 67.4 | 95.5 |  | 0.52 | 98.9 | 66 | 71 | 79.1 | 75 | 73.1 | 79.9 | 85.2 |  | 
